Source: patent publication US9062041B2 (Bayer Intellectual Property GmbH, priority 2011, dated 2015)

How the values were obtained:
Format in all cases: cell-based
[1] = biological target: EP2 subtype of the human PGE2 receptor (Homo sapiens, UniProt P43116); test: cAMP antagonism test on the human EP2 receptor (HTRF cAMP detection); settings: hEP2 receptor, read-out: Antagonism hEP2 IC50
In short: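 Cells expressing human EP2 preincubated 20 min at RT with compound (0.8 nM–16.5 μM), then stimulated 60 min with PGE2 (3× solution 1.5 nM) in PBS-IBMX. After 20 min lysis, cAMP measured by competitive HTRF with cAMP-d2 and Eu cryptate anti-cAMP antibody (665/620 nm ratio).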

[2] = biological target: EP4 subtype of the human PGE2 receptor (Homo sapiens, UniProt P35408); test: cAMP antagonism test on the human EP4 receptor (HTRF cAMP detection); settings: selectivity towards hEP4, IC50 measured by cAMP antagonism test
Chain of EP4 subtype of the human PGE2 receptor (P35408 whole entry): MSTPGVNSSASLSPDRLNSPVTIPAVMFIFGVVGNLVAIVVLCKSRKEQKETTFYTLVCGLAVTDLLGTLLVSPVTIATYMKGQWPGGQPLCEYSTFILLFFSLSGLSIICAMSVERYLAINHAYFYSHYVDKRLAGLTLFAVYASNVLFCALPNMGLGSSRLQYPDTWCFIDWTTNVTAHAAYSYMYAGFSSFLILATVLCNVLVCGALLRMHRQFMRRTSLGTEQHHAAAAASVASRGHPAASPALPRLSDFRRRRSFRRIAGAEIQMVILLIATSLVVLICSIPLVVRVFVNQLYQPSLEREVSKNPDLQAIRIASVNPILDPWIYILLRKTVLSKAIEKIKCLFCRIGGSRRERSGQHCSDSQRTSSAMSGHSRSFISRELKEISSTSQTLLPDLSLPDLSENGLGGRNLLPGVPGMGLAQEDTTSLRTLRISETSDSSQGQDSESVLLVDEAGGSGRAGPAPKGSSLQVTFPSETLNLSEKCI
In short: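 Cells expressing human EP4 preincubated 20 min at RT with compound (0.8 nM–16.5 μM), then stimulated with PGE2 (0.3 nM in 3× solution, with IBMX) 60 min at RT. After lysis, cAMP measured by HTRF competition (665/620 nm ratio); antagonism seen as rise in FRET signal.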

human PGD receptor = biological target: T1, human PGD receptor (Homo sapiens, UniProt Q13258); test: cAMP antagonism test on the human prostaglandin D receptor (HTRF cAMP detection); settings: selectivity towards hDP, IC50 measured by cAMP antagonism test
T1 sequence (Q13258 1-359): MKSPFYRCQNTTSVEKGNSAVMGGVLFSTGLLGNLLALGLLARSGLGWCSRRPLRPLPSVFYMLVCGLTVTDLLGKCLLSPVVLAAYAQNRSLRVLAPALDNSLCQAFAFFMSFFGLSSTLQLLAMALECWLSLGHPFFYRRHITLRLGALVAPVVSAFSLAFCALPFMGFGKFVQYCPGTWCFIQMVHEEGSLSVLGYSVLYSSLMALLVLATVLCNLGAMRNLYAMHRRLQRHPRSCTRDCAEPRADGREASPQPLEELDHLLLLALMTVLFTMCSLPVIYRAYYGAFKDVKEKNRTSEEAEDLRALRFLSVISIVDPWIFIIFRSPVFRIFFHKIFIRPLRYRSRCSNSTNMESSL
In short: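 Cells pre-mixed with cAMP-d2 were preincubated with compound (0.8 nM–16.5 μM) for 20 min at RT, then stimulated with 3× PGD2 solution (6 nM, in PBS-IBMX) for 30 min at RT. After lysis (20 min), HTRF read at 665/620 nm; antagonism seen as rise in FRET ratio.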

Chain of EP2 subtype of the human PGE2 receptor (P43116 whole entry): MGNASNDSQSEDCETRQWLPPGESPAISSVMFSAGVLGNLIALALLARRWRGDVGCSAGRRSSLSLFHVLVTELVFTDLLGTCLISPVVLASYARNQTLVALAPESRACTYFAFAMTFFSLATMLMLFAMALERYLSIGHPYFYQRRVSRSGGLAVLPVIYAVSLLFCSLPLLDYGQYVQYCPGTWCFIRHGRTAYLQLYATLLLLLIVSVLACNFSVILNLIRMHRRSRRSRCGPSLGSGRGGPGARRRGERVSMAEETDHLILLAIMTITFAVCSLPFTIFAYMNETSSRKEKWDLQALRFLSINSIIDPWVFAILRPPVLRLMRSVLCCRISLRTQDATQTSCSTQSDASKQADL

| Compound | IC50 [1] [µM] | Selectivity hEP2/hEP4 [2] | Selectivity hEP2/hDP (human PGD receptor) |
| --- | --- | --- | --- |
| COCCNC(=O)c1ccc2nn(CC3CCN(C(=O)c4ccc(C(C)(C)C#N)cc4)CC3)cc2c1C [Example 341, 2-({1-[4-(1-cyano-1-methylethyl)benzoyl]piperidin-4-yl}methyl)-N-(2-methoxy-ethyl)-4-methyl-2H-indazol-5-carboxamide] | 0.0553 | xxx (xxx > 100) | xxx (xxx > 100) |
| Cc1c(C(=O)NCC(F)(F)F)ccc2nn(CC3CCN(C(=O)c4ccc(-c5ccc(C(F)(F)F)nc5)cc4)CC3)cc12 [Example 321, 4-methyl-N-(2,2,2-trifluoroethyl)-2-[(1-{4-[6-(trifluoromethyl)pyridin-3-yl]-benzoyl}piperidin-4-yl)methyl]-2H-indazol-5-carboxamide] | 0.101 | xxx (xxx > 100) | xxx (xxx > 100) |
| COCCNC(=O)c1ccc2nn(CC3CCN(C(=O)c4ccc(-c5ccc(C)cc5)cc4F)CC3)cc2c1C [Example 44, 2-({1-[(3-fluoro-4′-methylbiphenyl-4-yl)carbonyl]piperidin-4-yl}methyl)-N-(2-methoxyethyl)-4-methyl-2H-indazol-5-carboxamide] | 0.00385 | xxx (xxx > 100) | xxx (xxx > 100) |
| Cc1c(C(=O)NCCN2CCC(F)(F)C2)ccc2nn(CC3CCN(C(=O)c4ccc(S(F)(F)(F)(F)F)cc4)CC3)cc12 [Example 68, N-[2-(3,3-difluoropyrrolidin-1-yl)ethyl]-4-methyl-2-({1-[4-(pentafluoro-λ^6-sulphanyl)benzoyl]piperidin-4-yl}methyl)-2H-indazol-5-carboxamide] | 0.0177 | xxx (xxx > 100) | xxx (xxx > 100) |
| COCCNC(=O)c1ccc2nn(CC3CCN(C(=O)c4ccc(OC5CCCC5)cc4)CC3)cc2c1C [Example 31, 2-({1-[4-(cyclo-pentyloxy)benzoyl]-piperidin-4-yl}-methyl)-N-(2-methoxyethyl)-4-methyl-2H-indazol-5-carboxamide] | 0.00308 | xxx (xxx > 100) | xxx (xxx > 100) |
| COc1ccc2cc(C(=O)N3CCC(Cn4cc5c(C)c(C(=O)NCC(F)(F)F)ccc5n4)CC3)n(C)c2c1 [Example 295, 2-({1-[(6-methoxy-1-methyl-1H-indol-2-yl)carbonyl]piperidin-4-yl}methyl)-4-methyl-N-(2,2,2-trifluoroethyl)-2H-indazol-5-carboxamide] | 0.0708 | xxx (xxx > 100) | xxx (xxx > 100) |
| COCCNC(=O)c1ccc2nn(CC3CCN(C(=O)c4cn(C)c5ccccc45)CC3)cc2c1OC [Example 273, 4-methoxy-N-(2-methoxyethyl)-2-({1-[(1-methyl-1H-indol-3-yl)carbonyl]-piperidin-4-yl}methyl)-2H-indazol-5-carboxamide] | 0.0185 | xxx (xxx > 100) | xxx (xxx > 100) |
| Cc1cc2nn(CC3CN(C(=O)c4ccc(Cl)cc4)C3)cc2cc1C(=O)NCCOCC1CC1 [Example 198, 2-{[1-(4-chlorobenzoyl)azetidin-3-yl]methyl}-N-[2-(cyclopropylmethoxy)ethyl]-6-methyl-2H-indazol-5-carboxamide] | 0.153 | xxx (xxx > 100) | xxx (xxx > 100) |
| Cc1c(C(=O)NCCS(C)(=O)=O)ccc2nn(CC3CCN(C(=O)c4ccc(Cl)cc4)CC3)cc12 [Example 244, 2-{[1-(4-chlorobenzoyl)piperidin-4-yl]methyl}-N-(2-mesylethyl)-4-methyl-2H-indazol-5-carboxamide] | 0.0442 | xxx (xxx > 100) | xxx (xxx > 100) |
| COCCNC(=O)c1ccc2nn(CC3CCN(C(=O)c4ccc(-c5ccc(OC)nc5)cc4)CC3)cc2c1C [Example 375, N-(2-methoxyethyl)-2-({1-[4-(6-methoxypyridin-3-yl)benzoyl]piperidin-4-yl}-methyl)-4-methyl-2H-indazol-5-carboxamide] | 0.0058 | xxx (xxx > 100) | xxx (xxx > 100) |
| Cc1c(C(=O)NCC(C)OCC2CC2)ccc2nn(CC3CCN(C(=O)c4ccc(C5CC5)cc4)CC3)cc12 (racemic) [Example 106, (+/−)-2-{[1-(4-cyclopropylbenzoyl)piperidin-4-yl]-methyl}-N-[2-(cyclopropyl-methoxy)propyl]-4-methyl-2H-indazol-5-carboxamide] | 0.15 | xxx (xxx > 100) | xxx (xxx > 100) |
| COCCNC(=O)c1ccc2nn(CC3CCN(C(=O)c4cn(C)c5ccccc45)CC3)cc2c1C [Example 331, N-(2-methoxyethyl)-4-methyl-2-({1-[(1-methyl-1H-indol-3-yl)carbonyl]-piperidin-4-yl}methyl)-2H-indazol-5-carboxamide] | 0.00947 | xxx (xxx > 100) | xxx (xxx > 100) |
| COCCNC(=O)c1ccc2nn(CC3CCN(C(=O)c4ccc(Oc5ccc(F)cc5)cc4)CC3)cc2c1C [Example 3, 2-({1-[4-(4-fluorophenoxy)benzoyl]piperidin-4-yl}methyl)-N-(2-methoxyethyl)-4-methyl-2H-indazol-5-carboxamide] | 0.00491 | xxx (xxx > 100) | xxx (xxx > 100) |
| COCCNC(=O)c1ccc2nn(CC3CCN(C(=O)c4ccc(Cl)cc4)CC3)cc2c1OC(F)F [Example 225, 2-{[1-(4-chlorobenzoyl)piperidin-4-yl]methyl}-4-(difluoromethoxy)-N-(2-methoxyethyl)-2H-indazol-5-carboxamide] | 0.0143 | xxx (xxx > 100) | xxx (xxx > 100) |
| Cc1c(C(=O)NCC2COCCO2)ccc2nn(CC3CCN(C(=O)c4ccc(Oc5ccc(C(F)(F)F)cc5)cc4)CC3)cc12 (single isomer, unassigned) [Example 418, (R or S)—N-(1,4-dioxan-2-ylmethyl)-4-methyl-2-[(1-{4-[4-(trifluoromethyl)-phenoxy]benzoyl}piperidin-4-yl)methyl]-2H-indazol-5-carboxamide] | 0.0158 | xxx (xxx > 100) | xxx (xxx > 100) |
| COc1c(C(=O)NCC(F)(F)F)ccc2nn(CC3CCN(C(=O)c4ccc(Cl)cc4)CC3)cc12 [Example 263, 2-{[1-(4-chlorobenzoyl)piperidin-4-yl]methyl}-4-methoxy-N-(2,2,2-trifluoro-ethyl)-2H-indazol-5-carboxamide] | 0.181 | xx (xx: 10-100) | xx (xx: 10-100) |
| Cc1c(C(=O)NCC(F)(F)F)ccc2nn(CC3CCN(C(=O)c4ccc(S(F)(F)(F)(F)F)cc4)CC3)cc12 [Example 71, 4-methyl-2-({1-[4-(pentafluoro-λ^6-sulphanyl)benzoyl]piperidin-4-yl}methyl)-N-(2,2,2-trifluoroethyl)-2H-indazol-5-carboxamide] | 0.0829 | xxx (xxx > 100) | xxx (xxx > 100) |
| Cc1c(C(=O)NCC(F)(F)F)ccc2nn(CC3CCN(C(=O)c4ccc(Oc5ccc(Cl)cn5)cc4)CC3)cc12 [Example 311, 2-[(1-{4-[(5-chloropyridin-2-yl)oxy]benzoyl}piperidin-4-yl)methyl]-4-methyl-N-(2,2,2-trifluoroethyl)-2H-indazol-5-carboxamide] | 0.0841 | xxx (xxx > 100) | xxx (xxx > 100) |
| COCCNC(=O)c1ccc2nn(CC3CCN(C(=O)c4ccc(-c5ccccc5OC(F)(F)F)cc4F)CC3)cc2c1C [Example 46, 2-[(1-{[3-fluoro-2′-(trifluoromethoxy)-biphenyl-4-yl]-carbonyl}piperidin-4-yl)methyl]-N-(2-methoxyethyl)-4-methyl-2H-indazol-5-carboxamide] | 0.00491 | xxx (xxx > 100) | xxx (xxx > 100) |
| COc1ccc(-c2ccc(C(=O)N3CCC(Cn4cc5c(C)c(C(=O)NCC(F)(F)F)ccc5n4)CC3)cc2)c(C)c1 [Example 318, 2-({1-[(4′-methoxy-2′-methylbiphenyl-4-yl)carbonyl]piperidin-4-yl}methyl)-4-methyl-N-(2,2,2-trifluoroethyl)-2H-indazol-5-carboxamide] | 0.0263 | xxx (xxx > 100) | xxx (xxx > 100) |
